This note sets out measurements from patent US7713963B2, “Acylated indanyl amines and their use as pharmaceuticals” (sanofi-aventis Deutschland GmbH, priority 2001, dated 2010).

This assay deals with eNOS promoter. The experiment in a line: Activation of eNOS transcription (eNOS promoter-luciferase reporter gene assay). It is filed as cell-based, human. To be noted: for maximal fold induction: read-out: TIR (max). As for the experimental part: Measurement of activation of eNOS transcription Activation of eNOS transcription was measured as described in detail in Li et al. “Activation of protein kinase C alpha and/or epsilon enhances transcription of the human endothelial nitric oxide synthase gene”, Mol. Pharmacol. 1998; 53: 630-637. Briefly, a 3.5 kB long fragment 5′ of the starting codon of the eNOS gene was cloned, sequenced and cloned in firefly luciferase expression plasmids to monitor activation of the eNOS promoter by reporter gene activity. A human endothelial cell line stable transfected and expressing this promoter-reporter construct was used for compound testing. Cells were incubated for 18 h with compounds. All compounds were dissolved in sterile DMSO. A final concentration of 0.5% DMSO in complete medium was allowed. Induction of reporter gene expression in these cells was measured using a standard luciferase assay system (Promega, Cat. No E150) according to the manufacturer's instructions. Luciferase induction in cells incubated with compounds were compared to those incubated with solvent alone. The ratio of both activities (transcription induction ratio, TIR) was plotted as a function of compound concentration. […] EC50 values of transcription induction ratios as a function of compound concentration were determined graphically.

[1] abbreviates: Homo sapiens, 18 h, maximum transcription induction ratio (luciferase with compound / solvent alone), 18 h incubation.
[2] abbreviates: Homo sapiens, Endothelial cell, 18 h, EC50 of transcription induction ratio, determined graphically, human endothelial cell line, 18 h incubation, read-out: EC-50.

Like-named read-outs stand apart in the source and are kept apart here.

`O=C(NC1Cc2ccccc2C1)c1ccc(Br)cc1` [Compound 289, 4-BROMO-N-INDAN-2-YL-BENZAMIDE]: under setting [1], the maximal fold induction is 2.6. Moreover, the EC50 under setting [2] worked out at 0.142 µM.

Consider `CCOc1cc(C(=O)NC2Cc3ccccc3C2)ccc1OC` [Compound 25, 3-ETHOXY-4-METHOXY-N-INDAN-2-YL-BENZAMIDE], for which, under setting [1], the maximal fold induction came out at 2.7. Also, the EC50 under setting [2] amounted to 12 µM.

Turning to `O=C(NC1Cc2ccccc2C1)c1ccc(Oc2ccccc2)cc1` [Compound 32, 4-PHENOXY-N-INDAN-2-YL-BENZAMIDE], the maximal fold induction under setting [1] was 4. Moreover, under setting [2], the EC50 was found to be 1.7 µM.

On to `CN(C)C(=O)C=Cc1cccc2c1CC(NC(=O)c1ccc(F)cc1)C2` (stereo not shown) [Compound 411, N-[4-(2-DIMETHYLCARBAMOYL-VINYL)-INDAN-2-YL]-4-FLUORO-BENZAMIDE], for which the maximal fold induction under setting [1] stood at 2.5. The EC50 under setting [2] is 2 µM.

`O=C(NC1Cc2ccccc2C1)c1cccc(-c2ccccn2)c1` [Compound 433, N-INDAN-2-YL-3-PYRIDIN-2-YL-BENZAMIDE]: the maximal fold induction under setting [1] came to 2.6. Besides, under setting [2], the EC50 came to 19 µM.

Regarding `O=C(NC1Cc2ccccc2C1)c1cccc(F)c1F` [Compound 302, 2,3-DIFLUORO-N-INDAN-2-YL-BENZAMIDE], under setting [1], the maximal fold induction came to 2.8. Also, the EC50 under setting [2] was 27 µM.

Turning to `O=C(NC1Cc2ccccc2C1)c1ccc(Cl)nc1` [Compound 387, 6-CHLORO-N-INDAN-2-YL-NICOTINAMIDE], under setting [1], the maximal fold induction was 2.6. In addition, the EC50 under setting [2] stood at 32 µM.

In the case of `O=C(NC1Cc2ccccc2C1)c1ccc(Cl)cc1Br` [Compound 331, 2-BROMO-4-CHLORO-N-INDAN-2-YL-BENZAMIDE], the maximal fold induction under setting [1] was 2.8. In addition, the EC50 under setting [2] was found to be 0.147 µM.

`CCc1sccc1C(=O)NC1Cc2ccccc2C1` [Compound 366, 2-ETHYL-THIOPHENE-3-CARBOXYLIC ACID INDAN-2-YLAMIDE]: the maximal fold induction under setting [1] worked out at 2.5. Further, the EC50 under setting [2] came out at 37 µM.

As to `Cc1csc(C(=O)NC2Cc3ccccc3C2)c1Cl` [Compound 342, 3-CHLORO-4-METHYL-THIOPHENE-2-CARBOXYLIC ACID INDAN-2-YLAMIDE], the maximal fold induction under setting [1] was 3. Moreover, the EC50 under setting [2] is 0.287 µM.

Take `O=C(NC1Cc2ccccc2C1)c1cccc(F)c1` [Compound 24, 3-FLUORO-N-INDAN-2-YL-BENZAMIDE]: the maximal fold induction under setting [1] turned out to be 2.88. The EC50 under setting [2] was determined as 2.5 µM.

Take `Cc1ccc(C(=O)NC2Cc3ccccc3C2)c(O)c1` [Compound 22, 2-HYDROXY-N-INDAN-2-YL-4-METHYL-BENZAMIDE]: the maximal fold induction under setting [1] came to 2.1. For the same compound, the EC50 under setting [2] was determined as 7 µM.

Take `CC(C)(C)C(=O)Nc1cccc(C(=O)NC2Cc3ccccc3C2)c1` [Compound 380, 3-(2,2-DIMETHYL-PROPIONYLAMINO)-N-INDAN-2-YL-BENZAMIDE]: the maximal fold induction under setting [1] is 2.6. Moreover, under setting [2], the EC50 was found to be 2.3 µM.

In the case of `Nc1nccnc1C(=O)NC1Cc2ccccc2C1` [Compound 185, 3-AMINO-PYRAZINE-2-CARBOXYLIC ACID INDAN-2-YLAMIDE], the maximal fold induction under setting [1] is 2.4. The EC50 under setting [2] is 27 µM.

Take `Cc1cc(C)c(C(=O)NC2Cc3ccccc3C2)c(N)n1` [Compound 187, 2-AMINO-N-INDAN-2-YL-4,6-DIMETRYL-NICOTINAMIDE]: under “EC50 of transcription induction ratio, determined graphically, human endothelial cell line, 18 h incubation, read-out: EC-50”, the EC50 was determined as 4.4 µM. In addition, the “TIR (max)” value (maximum transcription induction ratio (luciferase with compound / solvent alone), 18 h incubation) is 2.5.

Consider `O=C(NC1Cc2ccccc2C1)c1ccc(OCC(F)(F)F)cc1` [Compound 386B, N-INDAN-2-YL-4-(2,2,2-TRIFLUORO-ETHOXY)-BENZAMIDE], for which, under setting [1], the maximal fold induction was found to be 2.5. Besides, the EC50 under setting [2] was determined as 0.309 µM.

For the compound `O=C(NC1Cc2ccccc2C1)c1cc(Cl)ccc1F` [Compound 330, 5-CHLORO-2-FLUORO-N-INDAN-2-YL-BENZAMIDE], the maximal fold induction under setting [1] was 2.2. For the same compound, under setting [2], the EC50 was 12 µM.

As to `O=C(NC1Cc2ccccc2C1)c1ccc(Cl)nc1Cl` [Compound 203, 2,6-DICHLORO-N-INDAN-2-YL-NICOTINAMIDE], the maximal fold induction under setting [1] came out at 2.7. In addition, the EC50 under setting [2] was determined as 16 µM.

For `O=C(NC1Cc2ccc(OS(=O)(=O)c3ccccc3)cc2C1)c1ccc(F)cc1` (stereo not shown) [Compound 405, BENZENESULFONIC ACID 2-(4-FLUOROBENZOYLAMINO)-INDAN-5-YL ESTER], the maximal fold induction under setting [1] came to 2.8. Moreover, the EC50 under setting [2] came to 30 µM.

For `Cc1cc(C)c(C(=O)NC2Cc3ccccc3C2)c(C)c1` [Compound 282, N-INDAN-2-YL-2,4,6-TRIMETHYL-BENZAMIDE], the maximal fold induction under setting [1] was 2.3. Further, under setting [2], the EC50 was found to be 16 µM.

In the case of `COc1ccc(C(=O)NC2Cc3ccccc3C2)cc1Cl` [Compound 31, 3-CHLORO-4-METHOXY-N-INDAN-2-YL-BENZAMIDE], under setting [1], the maximal fold induction worked out at 3.05. The EC50 under setting [2] was 6 µM.

Regarding `CCCCOc1ccc(C(=O)NC2Cc3ccccc3C2)cc1` [Compound 30, 4-BUTOXY-N-INDAN-2-YL-BENZAMIDE], the maximal fold induction under setting [1] came out at 2.94. Further, the EC50 under setting [2] was 3 µM.

Consider `CC(=O)Oc1cc(C)ccc1C(=O)NC1Cc2ccccc2C1` [Compound 7, ACETIC ACID 2-(INDAN-2-YL-CARBAMOYL)-5-METHYL-PHENYLESTER], for which the maximal fold induction (Homo sapiens, 18 h) worked out at 2.57. The compound also yielded an EC50 (Homo sapiens, Endothelial cell, 18 h) of 0.1 µM.

As to `Cc1ccc(F)cc1C(=O)NC1Cc2ccccc2C1` [Compound 248, 5-FLUORO-N-INDAN-2-YL-2-METHYL-BENZAMIDE], the maximal fold induction under setting [1] was determined as 2.8. Besides, under setting [2], the EC50 came to 7.8 µM.

`Cc1ccccc1C(=O)NC1Cc2ccccc2C1` [Compound 281, N-INDAN-2-YL-2-METHYL-BENZAMIDE]: the maximal fold induction under setting [1] turned out to be 3. In addition, under setting [2], the EC50 is 0.684 µM.

With `O=C(NC1Cc2ccccc2C1)c1ccc(F)cc1Br` [Compound 61, 2-BROMO-4-FLUORO-N-INDAN-2-YL-BENZAMIDE], the maximal fold induction under setting [1] is 2.6. Besides, the EC50 under setting [2] came out at 0.7 µM.

Take `Cc1ccc(F)c(C(=O)NC2Cc3ccccc3C2)c1` [Compound 266, 2-FLUORO-N-INDAN-2-YL-5-METHYL-BENZAMIDE]: the maximal fold induction under setting [1] came out at 2.5. Further, the EC50 under setting [2] is 22 µM.

For the compound `Cc1cccc(C(=O)NC2Cc3ccccc3C2)c1Cl` [Compound 264, 2-CHLORO-N-INDAN-2-YL-3-METHYL-BENZAMIDE], the maximal fold induction under setting [1] came to 2.9. The EC50 under setting [2] came to 0.58 µM.

On to `O=C(N[C@@H]1Cc2ccccc2[C@H]1O)c1ccc(F)cc1` (relative stereo) [Compound 8, 4-FLUORO-N-(TRANS-1-HYDROXY-INDAN-2-YL)-BENZAMIDE], for which, under setting [1], the maximal fold induction was 2.2. Besides, under setting [2], the EC50 was determined as 8 µM.

Regarding `Cc1nc(C)c(C(=O)NC2Cc3ccccc3C2)s1` [Compound 233, 2,4-DIMETHYL-THIAZOLE-5-CARBOXYLIC ACID INDAN-2-YLAMIDE], the maximal fold induction under setting [1] turned out to be 2.5. Further, the EC50 under setting [2] is 13 µM.

In the case of `Cc1ccc(C(=O)NC2Cc3ccccc3C2)cc1Cl` [Compound 34, 3-CHLORO-4-METHYL-N-INDAN-2-YL-BENZAMIDE], the maximal fold induction under setting [1] came to 3.4. Also, the EC50 under setting [2] was found to be 1.7 µM.

For the compound `Cc1ccc(F)c(C(=O)NC2Cc3ccccc3C2)c1Cl` [Compound 346, 2-CHLORO-6-FLUORO-N-INDAN-2-YL-3-METHYL-BENZAMIDE], the maximal fold induction under setting [1] was determined as 2.6. Moreover, under setting [2], the EC50 turned out to be 26 µM.
